One series concerns the target T1, cytochrome P450 3A4 (Homo sapiens, UniProt P08684).
T1 construct: host or cells: microsomes
Put plainly: BzRes oxidation and ketoconazole inhibition, cytochrome P450 3A4 microsomes in solution and encapsulated in agarose. It is filed as biochemical. The conditions noted are these: standard error in parentheses.

In a further series the target is T2, 3A4*WT (Homo sapiens, UniProt P08684).
T2 construct: His-tag (concluded from Ni-NTA / Talon purification); biotinylated tag (BCCP; concluded from streptavidin detection); made in house; host or cells: E. coli XL-10 gold
The series can be described thus: BzRes turnover and ketoconazole inhibition, cumene hydrogen peroxide activated purified P450 3A4 isoform. It is filed as biochemical. Particulars: standard error in parentheses.

The target of another series is T3, 3A4*2 (Homo sapiens, UniProt P08684, S222P).
T3 construct: His-tag (concluded from Ni-NTA / Talon purification); biotinylated tag (BCCP; concluded from streptavidin detection); made in house; host or cells: E. coli XL-10 gold
Described as above. It is filed as biochemical. The conditions noted are these: standard error in parentheses.

For another series, the target named is T4, 3A4*3 (Homo sapiens, UniProt P08684, M445T).
T4 construct: His-tag (concluded from Ni-NTA / Talon purification); biotinylated tag (BCCP; concluded from streptavidin detection); made in house; host or cells: E. coli XL-10 gold
Described as above. It is filed as biochemical. The conditions noted are these: standard error in parentheses.

Another series concerns the target T5, 3A4*4 (Homo sapiens, UniProt P08684, I118V).
T5 construct: His-tag (concluded from Ni-NTA / Talon purification); biotinylated tag (BCCP; concluded from streptavidin detection); made in house; host or cells: E. coli XL-10 gold
The series is described as above. The conditions noted are these: standard error in parentheses. The class given is biochemical.

A further series deals with T6, 3A4*5 (Homo sapiens, UniProt P08684, P218R).
T6 construct: His-tag (concluded from Ni-NTA / Talon purification); biotinylated tag (BCCP; concluded from streptavidin detection); made in house; host or cells: E. coli XL-10 gold
The series is described as above. The class given is biochemical. Particulars: standard error in parentheses.

A further series has as its target 3A4*15 (Homo sapiens, UniProt P08684, R162Q). The series is described as above.
Series [1] concerns GADD45 promoter element DNA. The series can be described thus: Quantitative DNA binding on the p53 protein microarray (33P-labelled duplex DNA). Particulars: 33P GADD45 duplex DNA; for DNA binding Bmax (% wild-type) / pKd: room temperature 30 min, confidence limits in parentheses; for GADD45 DNA binding, in words: p53 microarray.
Setting [2] is: Gel encapsulated (agarose) microsomes.
[3] abbreviates: 200 μM cumene hydrogen peroxide.
The mark [4] stands for this setting: normalised for P450 concentration and scaled to wild-type.

These results are taken from patent US10870925B2, “Arrays” (SENGENICS CORPORATION PTE LTD, priority 2001, dated 2020).

pKd: −log10 of the molar value.

T1 sequence (P08684 whole entry): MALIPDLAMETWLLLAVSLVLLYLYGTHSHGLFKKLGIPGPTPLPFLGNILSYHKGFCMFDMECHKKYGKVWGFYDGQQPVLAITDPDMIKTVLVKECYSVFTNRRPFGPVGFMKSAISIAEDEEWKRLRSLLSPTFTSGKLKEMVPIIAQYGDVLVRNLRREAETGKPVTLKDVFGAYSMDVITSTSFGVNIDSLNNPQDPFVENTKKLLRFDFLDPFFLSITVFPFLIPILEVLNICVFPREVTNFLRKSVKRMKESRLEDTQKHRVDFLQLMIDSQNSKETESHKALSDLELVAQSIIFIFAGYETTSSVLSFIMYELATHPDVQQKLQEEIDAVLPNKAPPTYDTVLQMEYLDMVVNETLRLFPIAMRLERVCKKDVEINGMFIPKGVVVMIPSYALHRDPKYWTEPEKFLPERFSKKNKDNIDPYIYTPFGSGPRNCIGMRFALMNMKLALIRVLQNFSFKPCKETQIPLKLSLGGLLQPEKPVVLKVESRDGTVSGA
T2 sequence (P08684 whole entry): as above
T3 sequence (P08684 whole entry S222P): as the sequence (P08684 whole entry) above, with S222P counted along it
T6 sequence (P08684 whole entry P218R): as the sequence (P08684 whole entry) above, with P218R counted along it
T4 sequence (P08684 whole entry M445T): as the sequence (P08684 whole entry) above, with M445T counted along it
T5 sequence (P08684 whole entry I118V): as the sequence (P08684 whole entry) above, with I118V counted along it
Chain of 3A4*15 (P08684 whole entry R162Q): as the sequence (P08684 whole entry) above, with R162Q counted along it

For orientation: Km means the concentration of substrate that gives half-maximal velocity. `O=c1ccc2nc3ccc(OCc4ccccc4)cc3oc-2c1` [BzRes, resorufin benzyl ether]: the figures for the “BzRes Oxidation Vmax (% of soluble)” value on cytochrome P450 3A4 (setting [2]) and on cytochrome P450 3A4 (Soluble microsomes) were 50 (6) % of soluble and 100 (6) % of soluble, respectively. Further, the Km at cytochrome P450 3A4 (setting [2]) was 49 µM; on cytochrome P450 3A4 (Soluble microsomes) it was 20 µM; at 3A4*WT (setting [3]), 104 µM; at 3A4*2 (setting [3]) it was 62 µM; on 3A4*3 (setting [3]), 54 µM; on 3A4*4 (setting [3]), 111 µM. Also, the Km on 3A4*5 (setting [3]) amounted to 101 µM; at 3A4*15 (read-out: KM BzRes, 200 μM cumene hydrogen peroxide, standard error in parentheses), 89 µM. For the same compound, the “Vmax BzRes” value was 100 (34) at 3A4*WT (setting [4]); 65 (9) at 3A4*2 (setting [4]); 93 (24) at 3A4*3 (setting [4]); 69 (22) on 3A4*4 (setting [4]); 59 (16) at 3A4*5 (setting [4]); 111 (23) at 3A4*15 (normalised for P450 concentration and scaled to wild-type, standard error in parentheses).
Usually pKd stands for −log10 of the Kd, conventionally taken in molar units. Consider “G325V: p53 mutant protein, His- and biotin-tagged, E. coli expressed [Mutation G325V]”, for which, in series [1], the “DNA binding Bmax (% wild-type)” value was 73 (67-79) % wild-type; the pKd was 8.15; the “GADD45 DNA binding, in words” value was “near wild-type affinity”.
Take “R181C: p53 mutant protein, His- and biotin-tagged, E. coli expressed [Mutation R181C]”: in series [1], the “DNA binding Bmax (% wild-type)” value is given as 88 (81-95) % wild-type; the pKd was 7.96; the “GADD45 DNA binding, in words” value was “wild-type binding”.
With “R181H: p53 mutant protein, His- and biotin-tagged, E. coli expressed [Mutation R181H]”, in series [1], the “DNA binding Bmax (% wild-type)” value is 48 (40-57) % wild-type; the pKd is 7.96; the “GADD45 DNA binding, in words” value is recorded as “wild-type binding”.
With “R280K: p53 mutant protein, His- and biotin-tagged, E. coli expressed [Mutation R280K]”, in series [1], the “DNA binding Bmax (% wild-type)” value is given as 54 (40-70) % wild-type and the pKd was 7.68.
For the compound “S392A: p53 mutant protein, His- and biotin-tagged, E. coli expressed [Mutation S392A]”, in series [1], the “DNA binding Bmax (% wild-type)” value is 121 (107-136) % wild-type and the pKd is 8.00.
